From patent publication US7316738B2, “Milled submicron chlorothalonil with narrow particle size distribution, and uses thereof” (Phibro-Tech, Inc., priority 2004, dated 2008)
Where two headings read alike, the source gives them in different places.

Key:
leafspot infestation = settings: cited from earlier work; for Def (0.42) defoliation: 0.42 kg chlorothalonil per ha; for Def (0.84) defoliation: 0.84 kg chlorothalonil per ha; for Def (1.26) defoliation: 1.26 kg chlorothalonil per ha
[1] = cited from earlier work
[2] = Particle size (Sedigraph 5100T) of chlorothalonil milled with 0.4–0.5 mm zirconium silicate; format: physicochemical
[3] = Particle size (Sedigraph 5100T) of chlorothalonil milled with 0.5–0.6 mm cerium-doped zirconium oxide; format: physicochemical
Procedure: The laboratory-sized vertical mill was provided by CB Mills, model# L-3-J. The mill has a 2 liter capacity and is jacketed for cooling. Unless otherwise specified, ambient water was cycled through the mill cooling jacket during operation. The internal dimensions are 3.9″ diameter by 9.1″ height. The mill uses a standard 3×3″ disk agitator (mild steel) on a stainless steel shaft, and it operates at 2,620 rpm.
The media used in this Example was 0.4–0.5 mm zirconium silicate beads supplied by CB Mills. All particle size determinations were made with a Sedigraph™ 5100T manufactured by Micromeritics, which uses x-ray detection and bases calculations of size on Stokes' Law.
The same mill and conditions were used in this experiment as in experiment 1. However, the grinding media was 0.5–0.6 mm cerium-doped zirconium oxide beads obtained from CB Mills. The density of the cerium doped zirconium oxide is ˜6.0 g/cm^3. […] The total batch weight was about 600 g.

[4] = cited from earlier work; remark: listed apart in the source
[5] = milling time 0 mins, 0.4–0.5 mm zirconium silicate beads
[6] = milling time 30 mins, 0.4–0.5 mm zirconium silicate beads
[7] = milling time 60 mins, 0.4–0.5 mm zirconium silicate beads
[8] = milling time 90 mins, 0.4–0.5 mm zirconium silicate beads
[9] = milling time 120 mins, 0.4–0.5 mm zirconium silicate beads
[10] = milling time 150 mins, 0.4–0.5 mm zirconium silicate beads
[11] = milling time 180 mins, 0.4–0.5 mm zirconium silicate beads
[12] = milling time 270 mins, 0.4–0.5 mm zirconium silicate beads
[13] = milling time 450 mins, 0.4–0.5 mm zirconium silicate beads
[14] = milling time 0 mins, 0.5–0.6 mm cerium-doped zirconium oxide beads
[15] = milling time 90 mins, 0.5–0.6 mm cerium-doped zirconium oxide beads
[16] = milling time 240 mins, 0.5–0.6 mm cerium-doped zirconium oxide beads
[17] = 0.1 cm zirconium beads, 3000 rpm, 10 minutes, US 2004/0024099
[18] = 0.1 cm zirconia, 70% to 80% loading, 10 minutes, US 2004/0063847, 2003/0040569

N#Cc1c(Cl)c(Cl)c(Cl)c(C#N)c1Cl [Air, chlorothalonil]
Def (0.42) defoliation (leafspot infestation; 1974 data, air milled): 39 | Def (0.84) defoliation (leafspot infestation; 1974 data, air milled): 25 | Def (1.26) defoliation (leafspot infestation; 1974 data, air milled): 19 | Def (0.42) defoliation (leafspot infestation; 1975 data, air milled): 35 | Def (0.84) defoliation (leafspot infestation; 1975 data, air milled): 34 | Def (1.26) defoliation (leafspot infestation; 1975 data, air milled): 27 | <1μ, % (percentage of particles with a diameter less than 1 micron) ([1]; 1974 data, air milled): 7% | med. μ (median diameter in microns) ([1]; 1974 data, air milled): 3.3 microns | <1μ, % (percentage of particles with a diameter less than 1 micron) ([1]; 1975 data, air milled): 5% | med. μ (median diameter in microns) ([1]; 1975 data, air milled): 3.3 microns

N#Cc1c(Cl)c(Cl)c(Cl)c(C#N)c1Cl [Wet, chlorothalonil]
Def (0.42) defoliation (leafspot infestation; 1974 data, wet milled 3 hr): 33 | Def (0.84) defoliation (leafspot infestation; 1974 data, wet milled 3 hr): 24 | Def (1.26) defoliation (leafspot infestation; 1974 data, wet milled 3 hr): 15.5 | Def (0.42) defoliation (leafspot infestation; 1974 data, wet milled 9 hr): 32 | Def (0.84) defoliation (leafspot infestation; 1974 data, wet milled 9 hr): 17.2 | Def (1.26) defoliation (leafspot infestation; 1974 data, wet milled 9 hr): 14.1 | Def (0.42) defoliation (leafspot infestation; 1974 data, wet milled 13 hr): 27 | Def (0.84) defoliation (leafspot infestation; 1974 data, wet milled 13 hr): 23 | Def (1.26) defoliation (leafspot infestation; 1974 data, wet milled 13 hr): 15.4 | Def (0.42) defoliation (leafspot infestation; 1975 data, wet milled 3 hr): 35 | Def (0.84) defoliation (leafspot infestation; 1975 data, wet milled 3 hr): 28 | Def (1.26) defoliation (leafspot infestation; 1975 data, wet milled 3 hr): 28 | Def (0.42) defoliation (leafspot infestation; 1975 data, wet milled >9 hr): 32 | Def (0.84) defoliation (leafspot infestation; 1975 data, wet milled >9 hr): 29 | Def (1.26) defoliation (leafspot infestation; 1975 data, wet milled >9 hr): 29 | <1μ, % (percentage of particles with a diameter less than 1 micron) ([1]; 1974 data, wet milled 3 hr): 8% | med. μ (median diameter in microns) ([1]; 1974 data, wet milled 3 hr): 3.8 microns | <1μ, % (percentage of particles with a diameter less than 1 micron) ([1]; 1974 data, wet milled 9 hr): 22% | med. μ (median diameter in microns) ([1]; 1974 data, wet milled 9 hr): 1.75 microns | <1μ, % (percentage of particles with a diameter less than 1 micron) ([1]; 1974 data, wet milled 13 hr): 24% | med. μ (median diameter in microns) ([1]; 1974 data, wet milled 13 hr): 1.6 microns | <1μ, % (percentage of particles with a diameter less than 1 micron) ([1]; 1975 data, wet milled 3 hr): 10% | med. μ (median diameter in microns) ([1]; 1975 data, wet milled 3 hr): 3.7 microns | <1μ, % (percentage of particles with a diameter less than 1 micron) ([1]; 1975 data, wet milled >9 hr): 22% | med. μ (median diameter in microns) ([1]; 1975 data, wet milled >9 hr): 1.6 microns

N#Cc1c(Cl)c(Cl)c(Cl)c(C#N)c1Cl [chlorothalonil, 2,4,5,6-tetrachloro-1,3-dicyanobenzene]
d90 ([2]; at 60 minutes, 0.4–0.5 mm zirconium silicate media): about 2 microns | starting particle size ([2]; before wet milling): 3–4 microns | Volume % With Diameter Greater Than 2 μm [2, 5]: 95 Volume % | Volume % With Diameter Greater Than 5 μm [2, 5]: 48 Volume % | Volume % With Diameter Greater Than 10 μm [2, 5]: 10 Volume % | d50 [2, 5]: 4.9 μm | Volume % With Diameter Greater Than 1 μm [2, 6]: 68 Volume % | Volume % With Diameter Greater Than 2 μm [2, 6]: 21 Volume % | Volume % With Diameter Greater Than 5 μm [2, 6]: 4 Volume % | Volume % With Diameter Greater Than 10 μm [2, 6]: 0 Volume % | d50 [2, 6]: 1.3 μm | Volume % With Diameter Greater Than 1 μm [2, 7]: 50 Volume % | Volume % With Diameter Greater Than 2 μm [2, 7]: 11 Volume % | Volume % With Diameter Greater Than 5 μm [2, 7]: 2 Volume % | Volume % With Diameter Greater Than 10 μm [2, 7]: 4 Volume % | d50 [2, 7]: 1.0 μm | Volume % With Diameter Greater Than 1 μm [2, 8]: 94 Volume % | Volume % With Diameter Greater Than 2 μm [2, 8]: 22 Volume % | Volume % With Diameter Greater Than 5 μm [2, 8]: 23 Volume % | Volume % With Diameter Greater Than 10 μm [2, 8]: 18 Volume % | d50 [2, 8]: 1.4 μm | Volume % With Diameter Greater Than 2 μm [2, 9]: 4 Volume % | Volume % With Diameter Greater Than 5 μm [2, 9]: 0 Volume % | Volume % With Diameter Greater Than 10 μm [2, 9]: 2 Volume % | Volume % With Diameter Greater Than 1 μm [2, 10]: 58 Volume % | Volume % With Diameter Greater Than 2 μm [2, 10]: 6 Volume % | Volume % With Diameter Greater Than 5 μm [2, 10]: 2 Volume % | Volume % With Diameter Greater Than 10 μm [2, 10]: 0 Volume % | Volume % With Diameter Greater Than 1 μm [2, 11]: 53 Volume % | Volume % With Diameter Greater Than 2 μm [2, 11]: 7 Volume % | Volume % With Diameter Greater Than 5 μm [2, 11]: 2 Volume % | Volume % With Diameter Greater Than 10 μm [2, 11]: 2 Volume % | Volume % With Diameter Greater Than 1 μm [2, 12]: 54 Volume % | Volume % With Diameter Greater Than 2 μm [2, 12]: 8 Volume % | Volume % With Diameter Greater Than 5 μm [2, 12]: 0 Volume % | Volume % With Diameter Greater Than 10 μm [2, 12]: 2 Volume % | Volume % With Diameter Greater Than 1 μm [2, 13]: 56 Volume % | Volume % With Diameter Greater Than 2 μm [2, 13]: 21 Volume % | Volume % With Diameter Greater Than 5 μm [2, 13]: 8 Volume % | Volume % With Diameter Greater Than 10 μm [2, 13]: 12 Volume % | d50 ([2]; within about one hour, 0.4–0.5 mm zirconium silicate media): ~1 micron | increase in number of particles per unit of mass over the standard products (factor) ([3]; after 90 minutes of milling (first statement)): more than 30 | increase in number of particles per unit of mass over the standard products (factor) ([3]; after 90 minutes of milling (second statement)): more than 1000 | Volume % With Diameter Greater Than 1 μm [3, 14]: 92 Volume % | Volume % With Diameter Greater Than 2 μm [3, 14]: 77 Volume % | Volume % With Diameter Greater Than 5 μm [3, 14]: 30 Volume % | Volume % With Diameter Greater Than 10 μm [3, 14]: 8 Volume % | Volume % With Diameter Greater Than 0.4 μm [3, 15]: 22 Volume % | Volume % With Diameter Greater Than 1 μm [3, 15]: 3 Volume % | Volume % With Diameter Greater Than 2 μm [3, 15]: 3 Volume % | Volume % With Diameter Greater Than 5 μm [3, 15]: 3 Volume % | Volume % With Diameter Greater Than 10 μm [3, 15]: 3 Volume % | d50 [3, 15]: 0.31 μm | Volume % With Diameter Greater Than 0.2 μm [3, 16]: 51 Volume % | Volume % With Diameter Greater Than 0.4 μm [3, 16]: 3 Volume % | Volume % With Diameter Greater Than 1 μm [3, 16]: 3 Volume % | Volume % With Diameter Greater Than 2 μm [3, 16]: 2 Volume % | Volume % With Diameter Greater Than 5 μm [3, 16]: 1 Volume % | Volume % With Diameter Greater Than 10 μm [3, 16]: 0 Volume % | d50 [3, 16]: 0.21 μm | d50 ([3]; obtainable in 90 minutes, 0.5 mm zirconia milling media): less than 1 micron | mean volume diameter (d50) [4, 17]: less than 3 microns | size that 90% of the number of particles are below [4, 17]: below 0.5 microns | average particle size of the product ([4]; 40% chlorothalonil, 5.6% zinc oxide formulation, wet mill or high speed media mill, U.S. Pat. No. 5,667,795): 3 microns | average particle size diameter ([4]; milled with 2 mm glass beads, U.S. Pat. No. 5,360,783 Test 5): 2.3 microns

CC1OC(C)OC(C)OC(C)O1 (stereo not shown) [metaldehyde]
diameter that 90% of the particles are below [4, 18]: less than 2.5 microns | mean volume diameter [4, 18]: less than 1.5 microns

manganese ethylenebis(dithiocarbamate) [Maneb]
mean particle diameter ([4]; milled with 2 mm glass beads, U.S. Pat. No. 5,360,783 Example 2): 1.7–1.8 micons
